Reference: patent publication US20040121946A9, “Inducing cellular immune responses to her2/neu using peptide and nucleic acid compositions” (priority 2002, published 2004)
Where no end group is shown, it is not given here.

Columns and labels:
DRB1*0101 (DR1) = DRB1*0101 (DR1) (Homo sapiens, UniProt P01903+P01911, A100R/D57E/F55L/F60I/F76Y/I96L/L162R/M171V/P40L/Q125E/R42F/V115G/Y59C); assay: HLA class II peptide binding assay, purified HLA; details: unit not given
DRB1*0301 (DR3) = DRB1*0301 (DR3) (Homo sapiens, UniProt P01903+P01911, A100K/A102G/A103R/A169T/F55Y/I96L/K41T/L162R/M171V/P40S/Q125H/Q178H/Q39Y/R42S/S66N/T106N/T262R/W38E/Y61H); assay: HLA class II peptide binding assay, purified HLA; details: unit not given
DRB1*0401 (DR4w4) = DRB1*0401 (DR4w4) (Homo sapiens, UniProt P01903+P01911, A100K/A169T/F76Y/I96L/K127E/L162R/M171V/N62H/P40V/Q125Y/R42H/S133A/S149N/S66Y/V115G/V209L/W38E); assay: HLA class II peptide binding assay, purified HLA; details: Table XIX, DR supermotif peptides; unit not given
DRB1*0701 (DR7) = DRB1*0701 (DR7) (Homo sapiens, UniProt P01903+P01911, A100R/A102G/A103Q/D57E/D86V/E43K/F76Y/K127E/L162R/M171V/P40G/Q125H/Q99D/R33Q/R42Y/R54Q/S133A/S66F/T210M/V115G/Y107V/Y59L/Y89S); assay: HLA class II peptide binding assay, purified HLA; details: Table XIX, DR supermotif peptides; unit not given
DRB1*0802 (DR8w2) = DRB1*0802 (DR8w2) (Homo sapiens, UniProt P01903+P01911, A100R/A103L/A169T/F76Y/H45Y/I96F/K41T/L162R/M171V/P40S/Q125H/Q178H/Q39Y/Q99D/R218S/R42G/S66Y/V115G/W38E); assay: HLA class II peptide binding assay, purified HLA; details: for DR8w2 binding data: unit not given
DRB1*1101 (DR5w11) = DRB1*1101 (DR5w11) (Homo sapiens, UniProt P01903+P01911, A100R/A169T/A87E/I96F/K41T/L162R/M171V/P40S/Q125H/Q178H/Q39Y/Q99D/R42S/S66Y/T262R/V115G/W38E); assay: HLA class II peptide binding assay, purified HLA; details: for DR5w11 binding data: unit not given
DRB1*1302 (DR6w19) = DRB1*1302 (DR6w19) (Homo sapiens, UniProt P01903+P01911, A100E/A169T/K41T/L162R/M171V/P40S/Q125H/Q178H/Q39Y/Q99D/R42S/S66N/T262R/V115G/W38E/Y61H); assay: HLA class II peptide binding assay, purified HLA; details: for DR6w19 binding data: unit not given
DRB1*1501 (DR2w2β1) = DRB1*1501 (DR2w2β1) (Homo sapiens, UniProt P01903+P01911); assay: HLA class II peptide binding assay, purified HLA; details: for DR2wB1 binding data: Table XIX, DR supermotif peptides; for IC50: Table XXIX, read-out: DR2w2β1 nM
DRB5*0101 (DR2w2β2) = DRB5*0101 (DR2w2β2) (Homo sapiens, UniProt P01903+Q30154); assay: HLA class II peptide binding assay, purified HLA; details: for DR2w2B2 binding data: unit not given; for IC50: Table XXIX, read-out: DR2w2β2 nM
[1] = tested on: HLA-DR molecules (DR1, DR4w4, DR7, DRB5*0101, DRB1*1501, DRB1*1101, DRB1*0802, DRB1*1302); assay: DR supertype cross-reactive binding; design: species or system human; details: for No. of DR Alleles Crossbound: Table XXXI; for DR147 Binding / DR147 Cross-binding: number of DR1, DR4w4, DR7 bound; for DR147 Binding: Table XXIX; for DR147 Cross-binding: Table XXVIII; for Broad Binding (5/8): number of the 8 DR alleles bound
[2] = Table XIX, DR supermotif peptides
[3] = Table XXa, DR 3a motif peptides

Molecule	DR1 binding data (DRB1*0101 (DR1); [2])	DR3 binding data (DRB1*0301 (DR3); [2])	DR4w4 binding data (DRB1*0401 (DR4w4))	DR7 binding data (DRB1*0701 (DR7))	DR8w2 binding data (DRB1*0802 (DR8w2); [2])	DR5w11 binding data (DRB1*1101 (DR5w11); [2])	DR6w19 binding data (DRB1*1302 (DR6w19); [2])	DR2wB1 binding data (DRB1*1501 (DR2w2β1); unit not given)	DR2w2B2 binding data (DRB5*0101 (DR2w2β2); [2])	No. of DR Alleles Crossbound [1]	DR147 Binding [1]	DR147 Cross-binding [1]	Broad Binding (5/8) [1]	further results
CC[C@H](C)[C@H](NC(=O)CNC(=O)[C@H](Cc1ccccc1)NC(=O)[C@@H](NC(=O)[C@@H](NC(=O)CNC(=O)[C@H](CC(C)C)NC(=O)[C@@H](N)C(C)C)C(C)C)C(C)C)C(=O)N[C@@H](CC(C)C)C(=O)N[C@H](C(=O)N[C@@H](CCCCN)C(=O)N[C@@H](CCCNC(=N)N)C(=O)N[C@@H](CCCNC(=N)N)C(=O)N[C@@H](CCC(N)=O)C(=O)N[C@@H](CCC(N)=O)C(=O)O)[C@@H](C)CC	0.0700	0.0021	0.0029	0.0320	0.6400	0.4700	0.0150	0.0110	0.0620	7	2	2	7	
CC[C@H](C)[C@H](NC(=O)CNC(=O)[C@H](CC(=O)O)NC(=O)[C@H](Cc1ccc(O)cc1)NC(=O)[C@@H]1CCCN1C(=O)[C@H](CCCCN)NC(=O)[C@H](C)NC(=O)CNC(=O)[C@H](Cc1ccccc1)NC(=O)[C@@H](NC(=O)[C@H](CCSC)NC(=O)[C@H](CC(C)C)NC(=O)[C@H](CCC(=O)O)NC(=O)[C@H](Cc1c[nH]c2ccccc12)NC(=O)[C@@H](N)C(C)C)[C@@H](C)O)C(=O)O	0.0870	0.0010	0.0550	0.0370	0.0089	0.0054	0.0004	0.0990	0.1000	5	3	3	5	IC50 (DRB1*1101 (DR5w11); Table XXIX, read-out: DR5w11 nM): 3700 nM; IC50 (DRB1*1501 (DR2w2β1)): 92 nM; IC50 (DRB5*0101 (DR2w2β2)): 200 nM
ASPLTSHSAVVGIL	0.0890	0.0010	−0.0025	0.0350	−0.0004	−0.0005	0.0480	0.0950	0.0037					
CC(C)C[C@H](NC(=O)[C@H](CO)NC(=O)[C@H](C)NC(=O)[C@H](CC(N)=O)NC(=O)[C@@H](NC(=O)[C@@H]1CCCN1C(=O)[C@H](CC(C)C)NC(=O)[C@H](Cc1ccc(O)cc1)NC(=O)[C@@H](NC(=O)[C@H](CC(C)C)NC(=O)[C@H](CCC(=O)O)NC(=O)[C@H](CC(C)C)NC(=O)[C@@H](N)CC(N)=O)[C@@H](C)O)[C@@H](C)O)C(=O)N[C@@H](CO)C(=O)N[C@@H](Cc1ccccc1)C(=O)O	0.4700	0.0010	0.3800	0.0680	0.0220	0.0050	0.0017	0.0280	0.0090		3	3	4	
CSCC[C@H](NC(=O)[C@H](CC(C)C)NC(=O)[C@H](CCC(N)=O)NC(=O)[C@@H](NC(=O)[C@@H](NC(=O)[C@H](CC(C)C)NC(=O)[C@H](CCC(N)=O)NC(=O)[C@@H](NC(=O)[C@@H](N)[C@@H](C)O)C(C)C)C(C)C)[C@@H](C)O)C(=O)N1CCC[C@H]1C(=O)N[C@@H](Cc1ccc(O)cc1)C(=O)NCC(=O)N[C@@H](CS)C(=O)N[C@@H](CC(C)C)C(=O)N[C@@H](CC(C)C)C(=O)O	0.2300	0.0010	0.0460	0.0100	0.0069	−0.0005	0.0031		0.0009		2	2	3	IC50 (DRB1*0802 (DR8w2); Table XXIX, read-out: DR8w2 nM): 7100 nM
CC[C@H](C)[C@H](NC(=O)CNC(=O)[C@@H](NC(=O)[C@@H](NC(=O)[C@H](C)NC(=O)[C@H](CO)NC(=O)[C@@H](NC(=O)[C@@H](NC(=O)[C@H](CO)NC(=O)[C@@H](NC(=O)[C@H](CC(C)C)NC(=O)[C@@H]1CCCN1C(=O)[C@H](CO)NC(=O)[C@H](C)N)[C@@H](C)O)[C@@H](C)CC)[C@@H](C)CC)C(C)C)C(C)C)C(=O)N[C@@H](CC(C)C)C(=O)O											2	2	4	IC50 (DRB1*1302 (DR6w19); Table XXIX, read-out: DR6w19 nM): 73 nM; IC50 (DRB1*1501 (DR2w2β1)): 96 nM; IC50 (DRB5*0101 (DR2w2β2)): 5410 nM
ARLLDIDETEYHADG	0.0001	0.3100			−0.0009	−0.0008	−0.0001	−0.0006	−0.0007	0				DR1 binding data (DRB1*0101 (DR1); [3]): 0.0001; DR3 binding data (DRB1*0301 (DR3); [3]): 0.3100; DR8w2 binding data (DRB1*0802 (DR8w2); [3]): −0.0009; DR5w11 binding data (DRB1*1101 (DR5w11); [3]): −0.0008; DR6w19 binding data (DRB1*1302 (DR6w19); [3]): −0.0001; DR2w2B1 binding data (DRB1*1501 (DR2w2β1); Table XXa, DR 3a motif peptides, unit not given): −0.0006; DR2w2B2 binding data (DRB5*0101 (DR2w2β2); [3]): −0.0007
CC[C@H](C)[C@H](NC(=O)[C@H](CO)NC(=O)[C@H](CCC(=O)O)NC(=O)[C@H](CC(C)C)NC(=O)[C@H](C)NC(=O)[C@H](CCSC)NC(=O)[C@H](Cc1c[nH]c2ccccc12)NC(=O)[C@H](CCCCN)NC(=O)[C@@H](NC(=O)[C@@H]1CCCN1C(=O)[C@@H](NC(=O)[C@@H](N)CCCCN)C(C)C)[C@@H](C)CC)C(=O)N[C@@H](CC(C)C)C(=O)N[C@@H](CCCNC(=N)N)C(=O)N[C@@H](CCCNC(=N)N)C(=O)O	2.2000	0.0620	0.0690	0.0190		0.0073	0.0031	2.7000	2.1000					
CC[C@H](C)[C@H](NC(=O)[C@H](CCSC)NC(=O)[C@H](Cc1c[nH]c2ccccc12)NC(=O)[C@H](CS)NC(=O)[C@H](CCCCN)NC(=O)[C@@H](NC(=O)[C@H](CCSC)NC(=O)[C@@H](NC(=O)[C@H](CCSC)NC(=O)[C@H](Cc1ccc(O)cc1)NC(=O)[C@@H](NC(=O)[C@@H](N)CC(=O)O)C(C)C)[C@@H](C)CC)C(C)C)C(=O)N[C@@H](CC(=O)O)C(=O)N[C@@H](CO)C(=O)N[C@@H](CCC(=O)O)C(=O)O	0.0280	0.0010	0.0570		0.0450	0.0220	−0.0003	0.0047	0.0042		3	3	4	
ELELRKVKVLGSGAF	0.0160	0.0045	0.0350	0.0380	0.0250	0.0061	0.0014	0.0019	0.0052					
